Test: xn = mol fraction of the nth substance listed
Details: 101 kPa, Liquid; for viscosity: Capillary tube (Ostwald / Ubbelohde) method

CN(C)C=O [dimethylformamide] + O
Details | mass density [kg/m3] | viscosity [mPa·s]
283.15 K, x1 = 0.02 | 1000.31 | –
283.15 K, x1 = 0.04 | 1001.42 | –
283.15 K, x1 = 0.06 | 1002.8 | –
283.15 K, x1 = 0.08 | 1004.13 | –
283.15 K, x1 = 0.1 | 1005.32 | –
283.15 K, x1 = 0.2 | 1007.64 | –
283.15 K, x1 = 0.3 | 1004.4 | –
283.15 K, x1 = 0.398 | 997.83 | –
283.15 K, x1 = 0.498 | 990.56 | –
283.15 K, x1 = 0.599 | 983.02 | –
283.15 K, x1 = 0.697 | 976.07 | –
283.15 K, x1 = 0.798 | 969.84 | –
283.15 K, x1 = 1 | 958.96 | –
288.15 K, x1 = 0.02 | 999.23 | –
288.15 K, x1 = 0.04 | 999.91 | –
288.15 K, x1 = 0.06 | 1000.87 | –
288.15 K, x1 = 0.08 | 1001.82 | –
288.15 K, x1 = 0.1 | 1002.67 | –
288.15 K, x1 = 0.2 | 1003.86 | –
288.15 K, x1 = 0.3 | 1000.1 | –
288.15 K, x1 = 0.398 | 993.31 | –
288.15 K, x1 = 0.498 | 985.94 | –
288.15 K, x1 = 0.599 | 978.36 | –
288.15 K, x1 = 0.697 | 971.37 | –
288.15 K, x1 = 0.798 | 965.11 | –
288.15 K, x1 = 1 | 954.17 | –
293.15 K, x1 = 0.02 | 997.92 | 1.234
293.15 K, x1 = 0.04 | 998.2 | 1.442
293.15 K, x1 = 0.06 | 998.77 | 1.656
293.15 K, x1 = 0.08 | 999.37 | 1.847
293.15 K, x1 = 0.1 | 999.9 | 2.062
293.15 K, x1 = 0.2 | 1000.01 | 2.782
293.15 K, x1 = 0.3 | 995.76 | 2.954
293.15 K, x1 = 0.398 | 988.76 | 2.622
293.15 K, x1 = 0.498 | 981.3 | 2.162
293.15 K, x1 = 0.599 | 973.67 | 1.713
293.15 K, x1 = 0.697 | 966.65 | 1.377
293.15 K, x1 = 0.798 | 960.37 | 1.153
293.15 K, x1 = 1 | 949.39 | 0.864
298.15 K, x1 = 0.02 | 996.39 | –
298.15 K, x1 = 0.04 | 996.31 | –
298.15 K, x1 = 0.06 | 996.53 | –
298.15 K, x1 = 0.08 | 996.8 | –
298.15 K, x1 = 0.1 | 997.03 | –
298.15 K, x1 = 0.2 | 996.13 | –
298.15 K, x1 = 0.3 | 991.4 | –
298.15 K, x1 = 0.398 | 984.18 | –
298.15 K, x1 = 0.498 | 976.64 | –
298.15 K, x1 = 0.599 | 968.96 | –
298.15 K, x1 = 0.697 | 961.92 | –
298.15 K, x1 = 0.798 | 955.63 | –
298.15 K, x1 = 1 | 944.6 | –
303.15 K, x1 = 0.02 | 994.67 | 0.97
303.15 K, x1 = 0.04 | 994.25 | 1.114
303.15 K, x1 = 0.06 | 994.14 | 1.269
303.15 K, x1 = 0.08 | 994.11 | 1.407
303.15 K, x1 = 0.1 | 994.05 | 1.55
303.15 K, x1 = 0.2 | 992.19 | 2.051
303.15 K, x1 = 0.3 | 986.99 | 2.179
303.15 K, x1 = 0.398 | 979.57 | 1.979
303.15 K, x1 = 0.498 | 971.95 | 1.675
303.15 K, x1 = 0.599 | 964.24 | 1.382
303.15 K, x1 = 0.697 | 957.18 | 1.149
303.15 K, x1 = 0.798 | 950.87 | 0.985
303.15 K, x1 = 1 | 939.83 | 0.766
308.15 K, x1 = 0.02 | 992.74 | –
308.15 K, x1 = 0.04 | 992.03 | –
308.15 K, x1 = 0.06 | 991.61 | –
308.15 K, x1 = 0.08 | 991.29 | –
308.15 K, x1 = 0.1 | 990.98 | –
308.15 K, x1 = 0.2 | 988.2 | –
308.15 K, x1 = 0.3 | 982.55 | –
308.15 K, x1 = 0.398 | 974.94 | –
308.15 K, x1 = 0.498 | 967.24 | –
308.15 K, x1 = 0.599 | 959.49 | –
308.15 K, x1 = 0.697 | 952.42 | –
308.15 K, x1 = 0.798 | 946.1 | –
308.15 K, x1 = 1 | 935.05 | –
313.15 K, x1 = 0.02 | 990.67 | 0.783
313.15 K, x1 = 0.04 | 989.66 | 0.891
313.15 K, x1 = 0.06 | 988.95 | 1.003
313.15 K, x1 = 0.08 | 988.37 | 1.103
313.15 K, x1 = 0.1 | 987.8 | 1.208
313.15 K, x1 = 0.2 | 984.15 | 1.564
313.15 K, x1 = 0.3 | 978.07 | 1.66
313.15 K, x1 = 0.398 | 970.26 | 1.538
313.15 K, x1 = 0.498 | 962.5 | 1.337
313.15 K, x1 = 0.599 | 954.73 | 1.14
313.15 K, x1 = 0.697 | 947.64 | 0.971
313.15 K, x1 = 0.798 | 941.33 | 0.847
313.15 K, x1 = 1 | 930.27 | 0.684
318.15 K, x1 = 0.02 | 988.43 | –
318.15 K, x1 = 0.04 | 987.14 | –
318.15 K, x1 = 0.06 | 986.17 | –
318.15 K, x1 = 0.08 | 985.33 | –
318.15 K, x1 = 0.1 | 984.53 | –
318.15 K, x1 = 0.2 | 980.05 | –
318.15 K, x1 = 0.3 | 973.55 | –
318.15 K, x1 = 0.398 | 965.56 | –
318.15 K, x1 = 0.498 | 957.73 | –
318.15 K, x1 = 0.599 | 949.93 | –
318.15 K, x1 = 0.697 | 942.85 | –
318.15 K, x1 = 0.798 | 936.53 | –
318.15 K, x1 = 1 | 925.49 | –
323.15 K, x1 = 0.02 | 986 | 0.648
323.15 K, x1 = 0.04 | 984.49 | 0.729
323.15 K, x1 = 0.06 | 983.26 | 0.812
323.15 K, x1 = 0.08 | 982.19 | 0.892
323.15 K, x1 = 0.1 | 981.17 | 0.965
323.15 K, x1 = 0.2 | 975.89 | 1.228
323.15 K, x1 = 0.3 | 968.99 | 1.3
323.15 K, x1 = 0.398 | 960.81 | 1.228
323.15 K, x1 = 0.498 | 952.92 | 1.087
323.15 K, x1 = 0.599 | 945.11 | 0.961
323.15 K, x1 = 0.697 | 938.03 | 0.831
323.15 K, x1 = 0.798 | 931.73 | 0.74
323.15 K, x1 = 1 | 920.71 | 0.617
328.15 K, x1 = 0.02 | 983.51 | –
328.15 K, x1 = 0.04 | 981.71 | –
328.15 K, x1 = 0.06 | 980.24 | –
328.15 K, x1 = 0.08 | 978.94 | –
328.15 K, x1 = 0.1 | 977.71 | –
328.15 K, x1 = 0.2 | 971.68 | –
328.15 K, x1 = 0.3 | 964.38 | –
328.15 K, x1 = 0.398 | 956.04 | –
328.15 K, x1 = 0.498 | 948.09 | –
328.15 K, x1 = 0.599 | 940.27 | –
328.15 K, x1 = 0.697 | 933.2 | –
328.15 K, x1 = 0.798 | 926.91 | –
328.15 K, x1 = 1 | 915.92 | –
333.15 K, x1 = 0.02 | 980.84 | 0.548
333.15 K, x1 = 0.04 | 978.81 | 0.613
333.15 K, x1 = 0.06 | 977.1 | 0.675
333.15 K, x1 = 0.08 | 975.59 | 0.736
333.15 K, x1 = 0.1 | 974.16 | 0.792
333.15 K, x1 = 0.2 | 967.4 | 0.992
333.15 K, x1 = 0.3 | 959.73 | 1.046
333.15 K, x1 = 0.398 | 951.22 | 1.001
333.15 K, x1 = 0.498 | 943.22 | 0.905
333.15 K, x1 = 0.599 | 935.4 | 0.81
333.15 K, x1 = 0.697 | 928.34 | 0.722
333.15 K, x1 = 0.798 | 922.08 | 0.654
333.15 K, x1 = 1 | 911.13 | 0.559
338.15 K, x1 = 0.02 | 978.04 | –
338.15 K, x1 = 0.04 | 975.81 | –
338.15 K, x1 = 0.06 | 973.86 | –
338.15 K, x1 = 0.08 | 972.14 | –
338.15 K, x1 = 0.1 | 970.51 | –
338.15 K, x1 = 0.2 | 963.07 | –
338.15 K, x1 = 0.3 | 955.03 | –
338.15 K, x1 = 0.398 | 946.36 | –
338.15 K, x1 = 0.498 | 938.32 | –
338.15 K, x1 = 0.599 | 930.49 | –
338.15 K, x1 = 0.697 | 923.46 | –
338.15 K, x1 = 0.798 | 917.22 | –
338.15 K, x1 = 1 | 906.32 | –
343.15 K, x1 = 0.02 | 975.12 | 0.474
343.15 K, x1 = 0.04 | 972.66 | 0.526
343.15 K, x1 = 0.06 | 970.5 | 0.575
343.15 K, x1 = 0.08 | 968.59 | 0.624
343.15 K, x1 = 0.1 | 966.78 | 0.666
343.15 K, x1 = 0.2 | 958.67 | 0.821
343.15 K, x1 = 0.3 | 950.29 | 0.866
343.15 K, x1 = 0.398 | 941.46 | 0.837
343.15 K, x1 = 0.498 | 933.38 | 0.764
343.15 K, x1 = 0.599 | 925.56 | 0.701
343.15 K, x1 = 0.697 | 918.55 | 0.636
343.15 K, x1 = 0.798 | 912.34 | 0.583
343.15 K, x1 = 1 | 901.51 | 0.51
348.15 K, x1 = 0.02 | 972.14 | –
348.15 K, x1 = 0.04 | 969.42 | –
348.15 K, x1 = 0.06 | 967.1 | –
348.15 K, x1 = 0.08 | 964.94 | –
348.15 K, x1 = 0.1 | 962.96 | –
348.15 K, x1 = 0.2 | 954.21 | –
348.15 K, x1 = 0.3 | 945.49 | –
348.15 K, x1 = 0.398 | 936.52 | –
348.15 K, x1 = 0.498 | 928.4 | –
348.15 K, x1 = 0.599 | 920.59 | –
348.15 K, x1 = 0.697 | 913.61 | –
348.15 K, x1 = 0.798 | 907.45 | –
348.15 K, x1 = 1 | 896.69 | –
353.15 K, x1 = 0.02 | 968.96 | 0.417
353.15 K, x1 = 0.04 | 966.06 | 0.459
353.15 K, x1 = 0.06 | 963.53 | 0.499
353.15 K, x1 = 0.08 | 961.2 | 0.539
353.15 K, x1 = 0.1 | 959.05 | 0.572
353.15 K, x1 = 0.2 | 949.69 | 0.694
353.15 K, x1 = 0.3 | 940.64 | 0.727
353.15 K, x1 = 0.398 | 931.54 | 0.707
353.15 K, x1 = 0.498 | 923.39 | 0.659
353.15 K, x1 = 0.599 | 915.59 | 0.614
353.15 K, x1 = 0.697 | 908.64 | 0.563
353.15 K, x1 = 0.798 | 902.52 | 0.525
353.15 K, x1 = 1 | 891.86 | 0.47

— the NIST ThermoML archive (doi:10.1021/je700671t)
